Numbered stars: 1 amine (or outer) side, 2 acyl side, 3 side chain; on linkers, the order of the positions; unused ones are H or OH. Square brackets hold non-standard residues; d marks the D form. Peptide text beside a SMILES is read from it. Trp(βS-Me,7-OMe) = COc1cccc2c([C@H](C)[C@H](N)C(=O)O)c[nH]c12; Phe(4-SO2NH2) = N[C@@H](Cc1ccc(S(N)(=O)=O)cc1)C(=O)O; Phe(2-F,4-COOH) = N[C@@H](Cc1ccc(C(=O)O)cc1F)C(=O)O; Trp(7-CN) = N#Cc1cccc2c(C[C@H](N)C(=O)O)c[nH]c12; Trp(7-Cl) = N[C@@H](Cc1c[nH]c2c(Cl)cccc12)C(=O)O; Ala(pyrimidin-5-yl) = N[C@@H](Cc1cncnc1)C(=O)O; Phe(4-CONH2) = NC(=O)c1ccc(C[C@H](N)C(=O)O)cc1; Phe(4-COOH) = N[C@@H](Cc1ccc(C(=O)O)cc1)C(=O)O; 4Pal(3S-Me) = C[C@@H](c1ccncc1)[C@H](N)C(=O)O; Trp(7-aza) = N[C@@H](Cc1c[nH]c2ncccc12)C(=O)O; Phe(4-CH2NH2) = NCc1ccc(C[C@H](N)C(=O)O)cc1; Pip(5R-OH) = O=C(O)[C@@H]1CC[C@@H](O)CN1; X1 = O=C([C@@H]1CC[C@H](N[*:1])C1)[*:2]; Met(O2) = CS(=O)(=O)CC[C@H](N)C(=O)O; 4Pal = N[C@@H](Cc1ccncc1)C(=O)O; dHyp = O=C(O)[C@H]1C[C@H](O)CN1; Ahp(2) = CCCCC[C@H](N)C(=O)O; hSer = N[C@@H](CCO)C(=O)O; αMeS = C[C@](N)(CO)C(=O)O; Nle = CCCC[C@H](N)C(=O)O; Sar = CNCC(=O)O
These compounds were tested against T1, TNFα-induced NF-κB signal transduction pathway (TNFR1 signaling) in THP-1 cells (Homo sapiens, UniProt P19438) (assay: THP-1 Lucia NF-κB reporter cell assay, inhibition of TNFα-induced NF-κB signaling). Conditions: THP-1 NF-κB Lucia reporter cells, 10 ng/mL TNFα, 16-18 h, secreted luciferase; read-out: THP-1 IC50.
T1 sequence (P19438 30-455): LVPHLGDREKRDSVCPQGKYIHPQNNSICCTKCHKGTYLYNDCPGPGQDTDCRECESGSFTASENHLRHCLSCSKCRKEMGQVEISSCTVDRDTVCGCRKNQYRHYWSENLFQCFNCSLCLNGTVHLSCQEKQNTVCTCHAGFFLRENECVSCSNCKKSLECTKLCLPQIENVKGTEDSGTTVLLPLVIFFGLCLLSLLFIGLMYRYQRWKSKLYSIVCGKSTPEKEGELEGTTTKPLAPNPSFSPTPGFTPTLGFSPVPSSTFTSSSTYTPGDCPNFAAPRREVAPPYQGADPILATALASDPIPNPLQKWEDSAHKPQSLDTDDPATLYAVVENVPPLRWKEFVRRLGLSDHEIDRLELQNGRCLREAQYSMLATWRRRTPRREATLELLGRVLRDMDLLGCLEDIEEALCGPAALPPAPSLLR
Assay type: cell-based
In short: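 Macrocyclic peptides were preincubated 1 h at 37 °C with THP-1 NF-κB-Lucia reporter cells (20,000 cells/well) in antibiotic-free RPMI 1640/10% FBS, then stimulated with 10 ng/mL human TNFα overnight (16-18 h). Secreted luciferase in supernatant was read by luminescence; IC50 from 4-parameter logistic fits.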
`CCCC[C@@H]1NC(=O)[C@@H]2CC[C@@H](C2)NC(=O)[C@H]([C@@H](C)c2c[nH]c3c(OC)cccc23)NC(=O)CN(C)C(=O)[C@H](Cc2ccc(CN)cc2)NC(=O)[C@H](Cc2ccc(C(N)=O)cc2)NC(=O)[C@](C)(CO)NC(=O)[C@H](Cc2c[nH]c3c(C#N)cccc23)NC(=O)[C@H](Cc2ccc(C(=O)O)cc2)NC(=O)[C@H](CC(N)=O)NC(=O)[C@H]2C[C@H](O)CN2C(=O)[C@H](Cc2c[nH]c3ccccc23)NC(=O)[C@@H]2CC[C@@H](O)CN2C(=O)[C@H](Cc2ccncc2)NC1=O` [SEQ ID NO. 48] (cyclo([4Pal][Pip(5R-OH)]W[dHyp]N[Phe(4-COOH)][Trp(7-CN)][αMeS][Phe(4-CONH2)][Phe(4-CH2NH2)][Sar][Trp(βS-Me,7-OMe)][X1][Nle])) showed an IC50 of 0.7 nM.
With `CCCCC[C@@H]1NC(=O)[C@@H]2CC[C@@H](C2)NC(=O)[C@H]([C@@H](C)c2c[nH]c3c(OC)cccc23)NC(=O)CN(C)C(=O)[C@H](Cc2ccc(C(N)=O)cc2)NC(=O)[C@H](Cc2ccc(C(N)=O)cc2)NC(=O)[C@](C)(CO)NC(=O)[C@H](Cc2c[nH]c3c(C#N)cccc23)NC(=O)[C@H](Cc2ccc(C(=O)O)cc2)NC(=O)[C@H](CC(N)=O)NC(=O)[C@H]2C[C@H](O)CN2C(=O)[C@H](Cc2c[nH]c3ccccc23)NC(=O)[C@H](CCS(C)(=O)=O)NC(=O)[C@H]([C@@H](C)c2ccncc2)NC1=O` [SEQ ID NO. 49] (cyclo([Ahp(2)][4Pal(3S-Me)][Met(O2)]W[dHyp]N[Phe(4-COOH)][Trp(7-CN)][αMeS][Phe(4-CONH2)][Phe(4-CONH2)][Sar][Trp(βS-Me,7-OMe)][X1])) the IC50 was 0.7 nM.
`CCCCC[C@@H]1NC(=O)[C@@H]2CC[C@@H](C2)NC(=O)[C@H]([C@@H](C)c2c[nH]c3c(OC)cccc23)NC(=O)CN(C)C(=O)[C@H](Cc2ccc(C(N)=O)cc2)NC(=O)[C@H](Cc2ccc(C(N)=O)cc2)NC(=O)[C@](C)(CO)NC(=O)[C@H](Cc2c[nH]c3c(C#N)cccc23)NC(=O)[C@H](Cc2ccc(C(=O)O)cc2)NC(=O)[C@H](CC(N)=O)NC(=O)[C@H]2C[C@H](O)CN2C(=O)[C@H](Cc2c[nH]c3ccccc23)NC(=O)[C@H](CCO)NC(=O)[C@H]([C@@H](C)c2ccncc2)NC1=O` [SEQ ID NO. 50] (cyclo([Ahp(2)][4Pal(3S-Me)][hSer]W[dHyp]N[Phe(4-COOH)][Trp(7-CN)][αMeS][Phe(4-CONH2)][Phe(4-CONH2)][Sar][Trp(βS-Me,7-OMe)][X1])) showed an IC50 of 0.9 nM.
`CCCC[C@@H]1NC(=O)[C@@H]2CC[C@@H](C2)NC(=O)[C@H]([C@@H](C)c2c[nH]c3c(OC)cccc23)NC(=O)CN(C)C(=O)[C@H](Cc2ccc(C(=O)O)cc2F)NC(=O)[C@H](Cc2ccc(S(N)(=O)=O)cc2)NC(=O)[C@](C)(CO)NC(=O)[C@H](Cc2c[nH]c3c(C#N)cccc23)NC(=O)[C@H](Cc2ccc(C(=O)O)cc2F)NC(=O)[C@H](CC(N)=O)NC(=O)[C@H]2C[C@H](O)CN2C(=O)[C@H](Cc2c[nH]c3ncccc23)NC(=O)[C@@H]2CC[C@@H](O)CN2C(=O)[C@H](Cc2cncnc2)NC1=O` [SEQ ID NO. 51] (cyclo(N[Phe(2-F,4-COOH)][Trp(7-CN)][αMeS][Phe(4-SO2NH2)][Phe(2-F,4-COOH)][Sar][Trp(βS-Me,7-OMe)][X1][Nle][Ala(pyrimidin-5-yl)][Pip(5R-OH)][Trp(7-aza)][dHyp])) gave an IC50 of 0.4 nM.
`CCCC[C@@H]1NC(=O)[C@@H]2CC[C@@H](C2)NC(=O)[C@H]([C@@H](C)c2c[nH]c3c(OC)cccc23)NC(=O)CN(C)C(=O)[C@H](Cc2ccc(C(=O)O)cc2)NC(=O)[C@H](Cc2ccc(C(N)=O)cc2)NC(=O)[C@](C)(CO)NC(=O)[C@H](Cc2c[nH]c3c(Cl)cccc23)NC(=O)[C@H](Cc2ccncc2)NC(=O)[C@H](CC(N)=O)NC(=O)[C@H]2C[C@H](O)CN2C(=O)[C@H](Cc2c[nH]c3ccccc23)NC(=O)[C@@H]2CC[C@@H](O)CN2C(=O)[C@H](Cc2ccncc2)NC1=O` [SEQ ID NO. 53] (cyclo([4Pal][Trp(7-Cl)][αMeS][Phe(4-CONH2)][Phe(4-COOH)][Sar][Trp(βS-Me,7-OMe)][X1][Nle][4Pal][Pip(5R-OH)]W[dHyp]N)) gave an IC50 of 0.6 nM.

Source: patent US20240287138A1, “CYCLIC PEPTIDES FOR INHIBITING TNF RECEPTOR 1 ACTIVITY” (Merck Sharp & Dohme LLC, priority 2023, published 2024)
